The values that follow come from patent US9969741B2, “Pyrazolotriazines as inhibitors of nucleases” (MASARYKOVA UNIVERZITA, priority 2014, dated 2018).

One data set concerns the target T1, MUS81/EME1 (Homo sapiens, UniProt Q96NY9).
T1 sequence (Q96NY9 1-551): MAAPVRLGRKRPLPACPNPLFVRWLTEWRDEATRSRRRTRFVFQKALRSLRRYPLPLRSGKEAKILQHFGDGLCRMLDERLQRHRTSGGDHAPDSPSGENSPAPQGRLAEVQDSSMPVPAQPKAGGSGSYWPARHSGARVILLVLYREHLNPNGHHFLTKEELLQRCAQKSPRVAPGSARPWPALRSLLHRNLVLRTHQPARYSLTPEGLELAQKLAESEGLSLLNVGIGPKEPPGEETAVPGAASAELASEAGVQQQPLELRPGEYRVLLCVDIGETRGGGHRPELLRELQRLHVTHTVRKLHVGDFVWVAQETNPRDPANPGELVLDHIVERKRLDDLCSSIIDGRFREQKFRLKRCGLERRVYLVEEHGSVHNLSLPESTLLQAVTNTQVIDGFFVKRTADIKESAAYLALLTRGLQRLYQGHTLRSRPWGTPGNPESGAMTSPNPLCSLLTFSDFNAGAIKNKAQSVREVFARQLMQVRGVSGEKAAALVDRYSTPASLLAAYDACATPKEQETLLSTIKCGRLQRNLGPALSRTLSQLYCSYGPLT
T1 sequence (Q96AY2 1-570 partner): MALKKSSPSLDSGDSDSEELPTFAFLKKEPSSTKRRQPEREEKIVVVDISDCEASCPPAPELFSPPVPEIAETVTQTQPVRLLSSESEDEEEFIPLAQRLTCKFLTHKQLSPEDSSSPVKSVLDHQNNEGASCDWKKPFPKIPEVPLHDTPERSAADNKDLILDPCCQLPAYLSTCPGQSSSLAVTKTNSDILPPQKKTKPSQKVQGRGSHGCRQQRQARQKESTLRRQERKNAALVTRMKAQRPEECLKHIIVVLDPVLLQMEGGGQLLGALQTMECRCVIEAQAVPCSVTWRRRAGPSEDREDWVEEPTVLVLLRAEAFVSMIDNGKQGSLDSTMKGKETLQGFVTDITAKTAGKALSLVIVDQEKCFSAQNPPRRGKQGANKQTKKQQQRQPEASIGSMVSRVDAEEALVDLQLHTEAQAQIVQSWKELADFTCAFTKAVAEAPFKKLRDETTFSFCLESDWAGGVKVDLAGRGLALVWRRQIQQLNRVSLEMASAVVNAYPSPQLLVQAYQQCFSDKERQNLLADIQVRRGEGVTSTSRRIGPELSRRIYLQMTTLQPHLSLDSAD
The data set can be described thus: Nuclease inhibition assay, MUS81/EME1 (3′ flap fluorescent DNA substrate, gel readout). The settings on record: 5 nM enzyme, 5 nM 3′ flap substrate, 15 min at 30° C. It counts as biochemical. An excerpt:
In vitro assays were used for the determination of compound's IC50 values for inhibition of individual nucleases, i.e., MUS81/EME1, FEN1, EXO1, and MRE11. To generate IC50 values, concentration of compound was plotted against relative nuclease activity (in %). The dose-response curves were generated from inhibition data, from 5 point serial dilutions of inhibitory compounds, each in triplicate and fitted to a standard sigmoid curve. IC50 values were derived by standard nonlinear regression analysis.
All tested compounds were diluted in 100% DMSO (dimethylsulfoxide) to prepare working stocks with different concentrations. To keep the DMSO concentration constant in every reaction, always 0.5 μl of the compound stock was added to the reaction buffer. The reaction buffer differs depending on the enzyme tested. Also concentration of the compounds in the reaction depends on the particular enzyme, since the inhibitory effect of the compounds vary between the enzymes. Nevertheless, always doubling dilutions in the range 200-0.8 μM was used. The compound was added as the first component in the reaction buffer, followed by the enzyme addition. Short (15 minutes) pre-incubation step followed before the reaction was initiated by addition of DNA substrate (5 nM).
As a negative control, DNA substrate specific for each particular enzyme without the addition of the enzyme and the compound was used. The positive control contained all components of the reaction, except the compound of interest. However, to compensate for solvent effects, DMSO (at a final concentration of 2.5%) was included in the reaction.
For this experiment we prepared short fluorescently labeled oligonucleotide-based DNA substrates with specific structures reflecting the biochemical activities of tested individual nucleases (Table 1). These substrates were prepared by annealing of synthetic oligonucleotides purchased from VBC Biotech. Composition of each substrate is indicated below the table; the corresponding oligonucleotides were combined in equimolar ratios. For visualization, each substrate was labeled by fluorescent dye (fluorescein), which can be detected in the gel using appropriate imaging system (FLA-9000, Fuji) with filters for particular wavelengths (excitation: 485 nm, emission: 535 nm).
Nuclease assays were performed in reaction buffer specific for particular enzyme: MUS81/EME1 (50 mM Tris pH=7.5, 5 mM MgCl2, 1 mM DTT a 100 μg/ml BSA), MRE11 (30 mM Bis-Tris pH=7.0, 50 μg/ml BSA, 1 mM DTT a 250 μM MnCl2), EXO1 and FEN1 (50 mM Tris pH=7.5, 1 mM MgCl2, 1 mM DTT a 100 μg/ml BSA). The individual reactions were prepared by mixing with highly purified enzyme (MUS81/EME1 (5 nM), MRE11 (5 nM), EXO1 (5 nM) or FEN1 (10 nM); purification protocols described below), and different concentration of inhibitor (mentioned above) in corresponding reaction buffer. The final volume of the reaction was 20 μl. After short pre-incubation (15 minutes at room temperature), the reaction was initiated by addition of 5 nM of corresponding fluorescently labeled DNA substrate (3′ flap for MUS81/EME1, 5′ flap for MRE11 and FEN1, 3′ OH for EXO1; see FIG. 1) and incubated for 15 minutes at 30° C. Next, the reaction was stopped and deproteinized by addition of 2 μl of stop buffer, containing 0.1% SDS and 500 μg/ml proteinase K, and incubated for additional 5 minutes at 30° C. Then the loading dye, containing glycerol (60% glycerol, 10 mM Tris pH=7.4, 60 mM EDTA a 0.1% Orange G), was added to each reaction ( 1/10 of the reaction volume), and the whole mixture was subjected to electrophoresis in 10% polyacrylamide native gel (110 V, 40 min, 1× TBE). Fluorescently labeled DNA was detected by FLA-9000 scanner (Fuji) and the result was evaluated using Multi-Gauge V3.2 software (Fuji).
The Mus81/Eme1 expression construct was a kind gift from Dr. Steve West (Cancer Research UK). Briefly, the nuclease complex was purified as follows. […]
One may read the IC50 as the concentration that inhibits the measured activity by half. A higher IC50 goes with weaker potency. The compound `CCc1cc2nnc(-c3nc4ccccc4[nH]3)c(N)n2n1` [Preparative Example 5B] yielded an IC50 below 50 µM.
On the same count and under the same terms, the figure for `CC(C)c1nn2c(N)c(-c3nc4ccccc4[nH]3)nnc2c1-c1ccc(F)cc1` [Preparative Example 5D] is below 50 µM.
`CC(C)(C)c1cc2nnc(-c3nc4ccccc4[nH]3)c(N)n2n1` [Preparative Example 5F] yielded an IC50 below 50 µM.
`Nc1c(-c2nc3ccccc3[nH]2)nnc2cc(-c3ccccc3Cl)nn12` [Preparative Example 5G] returned a concentration for half-maximal inhibition (IC50) below 50 µM.
`CCc1nn2c(N)c(-c3nc4ccccc4n3Cc3ccccc3)nnc2c1-c1ccc(F)cc1` [Preparative Example 5M] displayed a 50% inhibitory concentration (IC50) below 50 µM.
On the same count and under the same terms, the figure for `CCc1cc2nnc(-c3nc4ccccc4n3Cc3ccccc3)c(N)n2n1` [Preparative Example 5N] is below 50 µM; for `Nc1c(-c2nc3ccccc3[nH]2)nnc2ccnn12` [Preparative Example 5O] it is above 50 µM.
`Nc1c(-c2nc3ccccc3[nH]2)nnc2c(-c3ccc(F)cc3)cnn12` [Preparative Example 5P] had an IC50 above 50 µM.
For `CCc1nn2c(N)c(-c3nc4ccccc4[nH]3)nnc2c1-c1cccc(-c2ccccc2)c1` [Preparative Example 5Y], the half-inhibitory concentration (IC50) is below 10 µM.
In turn, `CCc1nn2c(N)c(-c3nc4ccccc4[nH]3)nnc2c1-c1cccc(C(=O)OC)c1` [Preparative Example 5Z] registered a concentration for half-maximal inhibition (IC50) below 10 µM.
Same read-out and setting: the figure for `CCc1nn2c(N)c(-c3nc4ccccc4[nH]3)nnc2c1-c1cccc(C(=O)O)c1` [Preparative Example 5Zb] is below 10 µM; for `Nc1c(-c2nc3ccccc3[nH]2)nnc2cc(CO)nn12` [Preparative Example 6] it is above 50 µM; for `CCc1nn2c(O)c(-c3nc4ccccc4[nH]3)nnc2c1-c1ccc(F)cc1` [Preparative Example 8A] it is below 10 µM.
The compound `CCc1nn2c(N)c(C#N)nnc2c1-c1ccc(F)cc1` [Preparative Example 11] yielded an IC50 above 50 µM.
The compound `CCc1nn2c(N)c(C(N)=O)nnc2c1-c1ccc(F)cc1` [Preparative Example 12] registered a 50% inhibitory concentration (IC50) above 50 µM.
`CS(=O)(=O)c1ccc(-c2cnn3c(O)c(-c4nc5ccccc5n4Cc4ccccc4)nnc23)cc1` [Preparative Example 17A] came in with a half-maximal inhibitory concentration (IC50) below 10 µM.
As for `O=[N+]([O-])c1ccc(-c2cnn3c(O)c(-c4nc5ccccc5n4Cc4ccccc4)nnc23)cc1` [Preparative Example 17B], the IC50 was below 10 µM.
On the same count and under the same terms, the figure for `Oc1c(-c2nc3ccccc3n2Cc2ccccc2)nnc2c(-c3ccsc3)cnn12` [Preparative Example 17C] is below 50 µM; for `Oc1c(-c2nc3ccccc3n2Cc2ccccc2)nnc2c(-c3ccncc3)cnn12` [Preparative Example 17D] it is below 10 µM.
As to `Cn1ccc(-c2cnn3c(O)c(-c4nc5ccccc5n4Cc4ccccc4)nnc23)n1` [Preparative Example 17E], the concentration for half-maximal inhibition (IC50) is below 50 µM.
Same read-out and setting: the figure for `CS(=O)(=O)c1ccc(-c2cnn3c(O)c(-c4nc5ccccc5[nH]4)nnc23)cc1` [Preparative Example 18A] is below 10 µM; for `Cn1ccc(-c2cnn3c(O)c(-c4nc5ccccc5[nH]4)nnc23)n1` [Preparative Example 18B] it is below 50 µM; for `CCc1nn2c(O)c(-c3nc4cc(C)c(C)cc4[nH]3)nnc2c1-c1ccc(F)cc1` [Preparative Example 21] it is below 10 µM.

Tested on in the next data set: not given
Assay: not given
Conditions: not given
In general, melting point refers to the temperature of the solid-liquid transition. `CC(C)(C)[Si](OCc1cc2nnc(-c3nc4ccccc4[nH]3)c(N)n2n1)(c1ccccc1)c1ccccc1` registered a melting point of 233.5 to 234 °C.
On to `Nc1c(-c2nc3ccccc3[nH]2)nnc2cc(-c3ccccc3-c3ccccc3)nn12` [Preparative Example 5L], for which the melting point was above 250 °C.
For the compound `Nc1c(-c2nc3ccccc3[nH]2)nnc2cc(C=O)nn12` [Preparative Example 7], the melting point was above 250 °C.
As for `CCc1nn2c(N)c(C#N)nnc2c1-c1ccc(F)cc1` [Preparative Example 11], the melting point is > 215 °C (dec.).
Take `CCc1nn2c(N)c(-c3nc4ccccc4[nH]3)nnc2c1Br` [Preparative Example 13]: the melting point is above 250 °C.
